According to US7964736B2, “Phosphagen synthesis” (Nour Heart, Inc., priority 2004, dated 2011):
Read-outs that look alike come from different tables or passages of the source.

Experiments:
[1] = test system: isolated rabbit hearts; test: Isolated ischemic rabbit hearts; assay type: in vivo
[2] = test system: canine heart, regional warm ischemia (LAD); details: cited from earlier work
[3] = test system: isolated rabbit hearts; details: cited from earlier work
[4] = test system: rat hearts, normothermic cardioplegic arrest; details: ischemia time 40 min; cited from earlier work
[5] = test system: heart (cardioprotection); test: Dose-response study of cardioprotective effect; assay type: in vivo
[6] = test system: canine heart, hypothermic cardioplegic arrest; details: cited from earlier work; for results (restoration of cardiac function): canine
[7] = test system: rat heart, global warm ischemia; details: ischemia time 7, 9, 10 min; cited from earlier work
[8] = test system: canine heart, regional warm ischemia (LAD); test: Regional warm ischemia (LAD), intact AMI model: coronary artery occlusion followed by reperfusion; assay type: in vivo; details: LAD for 1 hour, and 2 hours reperfusion
[9] = test system: chopped whole brain; details: 0.5% in-vitro for 90 minutes; cited from earlier work
[10] = test system: dog hearts; test: Inotropic or chronotropic effect on dog hearts; assay type: in vivo
Description: As described above, although the mechanism by which CCr preserves the heart during ischemia and restores cardiac function during reperfusion is not fully understood, it is likely to be related to preservation of ATP. […] Since the breakdown of ATP is the immediate source of energy for contraction, and that contractile performance decreases precipitously and ceases when only 20% of ATP is depleted, the reported CCr preservation of over 85% of ATP (loss of only 15%) in ischemic myocardium is likely the major contributor to the observed restoration of post-ischemic myocardial contractility (see Allam M E, et al., Surg. Forum XLI:246-249, 1990, which is incorporated by reference in its entirety).

[11] = test system: ischemic isolated rat hearts; details: cited from earlier work
[12] = intact canine model, coronary artery occlusion followed by reperfusion

NC1=NCCN1CC(=O)O [CCr, 1-carboxymethyl-2-iminoimidazolidine]
tissue damage ([1]; 600 mg/kg intravenous for 2 hours prior to removing and perfusing hearts in-vitro for two hours): did not induce tissue damage
histology after 2 hours reperfusion (contraction bands, eosinophilic changes) ([1]; 600 mg/kg intravenous, versus control hearts): only occasional small foci of contraction bands and no significant eosinophilic changes
protection (Nourin-1, ATP and CrP levels) ([1]; hearts perfused with drug, without preinjection): no protection was observed
ATP maintained, of normal non-ischemic levels [2, 12]: 85%
CrP maintained, of normal non-ischemic levels [2, 12]: 97%
loss of ATP [2, 12]: 15%
loss of CrP [2, 12]: 3%
results (restoration of cardiac function) ([2]; ischemia time 1 hr, canine, drug prior to ischemia): Restoration
preservation of ATP ([2]; ischemic myocardium): over 85%
levels of ATP and CrP ([3]; isolated ischemic rabbit hearts): maintained high levels
Nourin-1 released ([3]; treated hearts versus controls): significant reduction
results (restoration of cardiac function) [4]: Restoration
cardioprotective effect ([5]; 150 mg/kg): No effect
cardioprotective effect ([5]; 300 mg/kg): strong cardioprotective effect
cardioprotective effect ([5]; 600 mg/kg): strong cardioprotective effect
defibrillation ([6]; bypass surgery model, untreated canines required external defibrillation): defibrillated spontaneously
results (restoration of cardiac function) ([6]; ischemia time 1 hr): Restoration
results (restoration of cardiac function) ([6]; ischemia time 3 hrs): Restoration
results (restoration of cardiac function) [7]: Restoration
cell damage compared to control hearts [8]: marked reduction in cell damage
protection of brain tissues from ischemic injury [9]: protected
inotropic or chronotropic effect [10]: no inotropic or chronotropic effect
defibrillation during reperfusion ([11]; fed rats versus control rats): spontaneously defibrillated sooner
reduction of myocardial ATP, exhaustion of high-energy phosphates, onset of rigor tension during cardiac ischemia ([11]; long-term feeding (up to 3 weeks) with 1%, rats and chickens): significantly delayed
ATP depletion and onset of rigor ([11]; prior feeding to rats, ischemic isolated hearts): delayed ATP depletion and the onset of rigor
number of hearts recovering mechanical function upon reperfusion ([11]; treated rats compared to controls): significantly higher

CN(CC(=O)O)C(=N)N [Cr, creatine, reference compound]
ATP and CrP lost ([3]; isolated ischemic rabbit hearts, control treatment): more than 95%
